Laboratory results from US6184217A (Cephalon, Inc., priority 1997, dated 2001).

Assays:
[1] = tested on: protein kinase C; test: Protein kinase C inhibition in vitro; type: biochemical
[2] = tested on: striatal tyrosine hydroxylase (dopaminergic neurons); test: Striatal tyrosine hydroxylase activity in high-dose MPTP-treated mice; type: in vivo; conditions: MPTP 40 mg/kg s.c., 7 days
Method: In a separate experiment, the activities of Compound A were assessed in a high dose MPTP-mouse model. A single 40 mg/kg injection of MPTP produced a 95% depletion in striatal tyrosine hydroxylase enzyme activity 7 days post-injection. Administration of Compound A at daily doses of between 0.03 and 3.0 mg/kg reduced the magnitude of the lesion, in a dose dependent manner.
Mice were treated with MPTP (40 mg/kg; s.c.) 4-6 hrs after the first Compound A injection. Compound A was then injected every day until the end of the experiment which was 7 days in duration. Striata were assessed for tyrosine hydroxylase enzyme activity. Asterisk indicates statistically significant difference (p<0.05) from MPTP-Vehicle treated animals.

[3] = tested on: striatal tyrosine hydroxylase (dopaminergic neurons); test: Striatal tyrosine hydroxylase activity in low-dose MPTP-treated mice; type: in vivo, C57 black mice; conditions: MPTP 20 mg/kg, 7 days
Method: Experiments were conducted using Compound A in MPTP-lesioned dopaminergic neurons in mice (MPTP mouse model). A single s.c. dose of MPTP (20 mg/kg) provided to C57 black mice produced approximately 60% loss of striatal tyrosine hydroxylase activity. Administration of Compound A, at daily doses ranging from 0.01 to 10 mg/kg (s.c.), to such MPTP-treated mice reduced the loss of striatal tyrosine hydroxylase activity.
Mice were treated with MPTP (20 mg/kg; s.c.) 4-6 hours after the first Compound A injection. Compound A was then injected every day until the end of the experiment, which was 7 days in duration. Striata were assessed for tyrosine hydroxylase enzyme activity. Asterisk indicates statistically significant difference (p<0.05) from MPTP-Vehicle treated animals.

[4] = tested on: nbm neurons; test: Ibotenic acid lesion: Fluoro-Gold-labeled nbm neurons; type: in vivo, Sprague-Dawley rats; conditions: 0.03 mg/kg s.c. every other day until 18 days post-lesion
Source text: To test directly the ability of Compound A to prevent excitotoxic neuron death, nbm neurons in adult male Sprague-Dawley rats were first labeled with a long-lasting marker. This was done by injecting Fluoro-Gold (FG), a neuronal tracer that is taken up by nerve terminals and transported back to the cell body (Book et al., J. Neuropath. Exp. Neurology, 53:95-102, 1994), into target regions of nbm neurons in the frontal and parietal cortex. 7-10 days later the animals received lesion of the nbm unilaterally, using 5 μg of ibotenic acid. Beginning 18 hours after this lesion, the animals received Compound A (0.03 mg/kg) via subcutaneous injection, every other day until 18 days post-lesion. Tissue sections were collected throughout the entire rostral-caudal extent of the nbm on both sides of the brain, and numbers of nbm neurons with the FG label were counted. The counts were corrected for size differences using standard procedures, and the results expressed as the percent of labeled neurons in the nbm on the lesioned side of each animal relative to the number of labeled neurons in the nbm on the opposite unlesioned side of the brain.

[5] = tested on: cholinergic neurons, striatal neurons, and sensory neurons; conditions: cited from earlier work
[6] = tested on: nucleus basalis magnocellularis; test: T-maze rewarded alternation task after bilateral nbm lesion; type: in vivo, Sprague-Dawley rats; conditions: 0.1 mg/kg s.c. every other day until 12 days post-lesion; tested 10-12 weeks later
Method: Adult male Sprague-Dawley rats were first trained to alternate responses in a standard rewarded-alternation T-maze task (Hepler et al., J. Neurosci., 5:866-873, 1985). The animals then received bilateral lesions of the nucleus basalis magnocellularis, to impair performance in T-maze tasks (e.g., Salamone et al., Behav. Brain Res., 13:63-70, 1984). Beginning 18 hours after the lesion, the animals received Compound A via subcutaneous injection (0.1 mg/kg) every other day until 12 days post-lesion. Twenty-four hours following the last injection all animals were placed in the T-maze once a day, until their alternation performance reached pre-operative levels, which took anywhere from 3 to 10 days. After reaching criterion, the animals were not further tested for 8-10 weeks. At that point the animals were again placed in the T-maze, once a day until they reached pre-operative performance.

[7] = tested on: uptake of catecholamines into nerve endings; test: Uptake of catecholamines into nerve endings; type: biochemical
[8] = tested on: IL-1β production (THP-1 cells); test: Inhibition of LPS-induced IL-1β production in THP-1 cells; type: cell-based; conditions: Homo sapiens, LPS 2 ug/ml
Method: Stock solutions consisting of 4 mM Compound A, in 100% DMSO, were stored at 4° C. Cell culture medium RPMI 1640 (Media Tech, Herndon, Va.) and fetal bovine serum (Hyclone, Logan, Utah) comprised the test medium. Lipopolysaccharide (LPS) (Sigma, St. Louis, Mo.) from E. coli serotype 0.111:B4, extracted with trichloroacetic acid, was used. Stock solutions of LPS were prepared and stored at 4° C. in phosphate-buffered saline (PBS). ELISA kits for assaying tumor necrosis factor alpha (TNF-α) and IL-1β were purchased from Boehringer-Mannheim, (Indianapolis, Ind.) and were used according to the manufacturer's instructions. THP-1 cells, a human monocyte-derived cell line, was obtained from the American Type Culture Collection (ATCC TIB 202). Cells were grown in RPMI 1640 containing 10% fetal bovine serum (medium) in a humidified atmosphere of 5% CO2 :95% air at 37° C. Experiments were performed in 24 well culture plates (Nunc) with 5×10^5 THP-1 cells in 1 ml of medium. Cells were incubated with LPS at 2 ug/ml to induce TNF-α. After a 3-hr incubation period, the cells and medium were centrifuged at 1,000×g for 5 min, and the resulting supernatant fluid was either assayed immediately for TNF-α or stored at -70° C. and assayed later. Media samples were measured for content of TNF-α and IL-1β by Elisa assays. […]

CCSCc1ccc2c(c1)c1c3c(c4c5cc(CSCC)ccc5n5c4c1n2C1CC(O)(C(=O)OC)C5(C)O1)CNC3=O (stereo not drawn) [Compound A]
protein kinase C inhibition at concentrations inhibiting TNF-α and IL-1β production ([1]; at 139 nM and 261 nM): inactive
fold less active than K-252a against protein kinase C ([1]; compared with K-252a): 570 fold
IC50 ([1]; in vitro): 16 µM
inhibitory activity against PKC ([1]; summary statement): little or no inhibitory activity against PKC
% Unlesioned Control ([2]; 0.03 mg/kg daily): 8 ± 2.5%
Striatal TH Activity (± SEM) ([2]; 0.03 mg/kg daily): 1.8 ± 0.6
% Unlesioned Control ([2]; 0.3 mg/kg daily): 12 ± 2.5%
Striatal TH Activity (± SEM) ([2]; 0.3 mg/kg daily): 2.7 ± 0.6
% Unlesioned Control ([2]; 3.0 mg/kg daily): 23 ± 8.0%
Striatal TH Activity (± SEM) ([2]; 3.0 mg/kg daily): 5.3 ± 1.8
% of Unlesioned Control ([3]; 0.01 mg/kg s.c. daily): 41 ± 5.3%
Striatal TH Activity (± SEM) ([3]; 0.01 mg/kg s.c. daily): 7.76 ± 1.23
% of Unlesioned Control ([3]; 0.03 mg/kg s.c. daily): 55 ± 3.9%
Striatal TH Activity (± SEM) ([3]; 0.03 mg/kg s.c. daily): 10.48 ± 0.92
% of Unlesioned Control ([3]; 0.10 mg/kg s.c. daily): 60 ± 6.5%
Striatal TH Activity (± SEM) ([3]; 0.10 mg/kg s.c. daily): 11.51 ± 0.80
% of Unlesioned Control ([3]; 0.30 mg/kg s.c. daily): 62 ± 5.0%
Striatal TH Activity (± SEM) ([3]; 0.30 mg/kg s.c. daily): 11.89 ± 1.34
% of Unlesioned Control ([3]; 1.0 mg/kg s.c. daily): 54 ± 7.0%
Striatal TH Activity (± SEM) ([3]; 1.0 mg/kg s.c. daily): 10.39 ± 1.39
% of Unlesioned Control ([3]; 3.0 mg/kg s.c. daily): 51 ± 5.8%
Striatal TH Activity (± SEM) ([3]; 3.0 mg/kg s.c. daily): 9.66 ± 1.10
% of Unlesioned Control ([3]; 10.0 mg/kg s.c. daily): 51 ± 3.7%
Striatal TH Activity (± SEM) ([3]; 10.0 mg/kg s.c. daily): 9.77 ± 0.70
effect on FG-labeled neurons at mid-lesion and caudal to the lesion [4]: declining effect
Fluoro-Gold-labeled neurons in rostral portion of lesioned nbm vs vehicle only ([4]; over 400 μm from midpoint of lesion, P<0.05 (FIG. 3)): significantly more FG-labeled neurons
function of cholinergic neurons, striatal neurons, and sensory neurons [5]: enhance the function of cholinergic neurons, striatal neurons, and sensory neurons
total number of errors in T-maze task compared to normals [6]: not different from normals
block of uptake of catecholamines into nerve endings [7]: found not to inhibit monoamine oxidase A or B in vitro (FIGS. 1 and 2) or block uptake of catecholamines into nerve endings
IC50 [8]: 0.261 µM
